The values that follow come from article PMC10419252, “Synthesis, Properties, and Biomedical Application of Dicationic Gemini Surfactants with Dodecane Spacer and Carbamate Fragments” (International Journal of Molecular Sciences, 2023).

Series [1] can be described thus: Electrode potential measurement with Br− selective electrode (potentiometry). It counts as physicochemical. To be noted: 298 K. The protocol:
The electrode potential measurements were performed for the Br^− counterion using the I-160MI laboratory ionomer (JSC Scientific and Production Association of the Measuring Equipment, Moscow, Russia). Br^− selective electrode (ELIS-131Br) and a reference electrode (ESr-10101) were used for measurement of the electromotive force (ΔE) of aqueous solution of surfactants (the concentration from 0.02 to 0.5 mM for 12-12-12(Et); from 0.002 to 0.05 mM for 14-12-14(Et)). To calibrate the ionomer, a series of KBr solutions were prepared in the concentration range of 0.1 mM to 100 mM.
β = 0.5(2Ct − CBr^−)/(Ct − cmc).

Series [2] in a line: Orange OT solubilization, spectrophotometry (Schott method for Nagg). The class given is physicochemical. How it is done: The cmc and the solubilizing capacity (S) of surfactants were determined using the spectral azo dye OOT and the non-steroidal anti-inflammatory drug IND. To obtain a saturated solution, an excess of OOT and IND was added to 2 mL of a surfactant solution, stirred, and kept for 48 and 24 h, respectively. After that, the solutions were filtered using Millex® Syringe Filters (Millipore, Burlington, MA, USA) with a pore size of 450 nm, and the optical density was measured. The absorption spectra were recorded on a Specord 250 Plus spectrophotometer (Analytik Jena AG, Jena, Germany). Quartz cells with a thickness of 1 and 0.5 cm (Hellma Analytics, Müllheim, Germany) were used for measurements.
The solubilizing capacity (S) was determined using the following formula:S = b/ε, where b is D/l = f (Csurf) dependency slope (above cmc), ε is the extinction coefficient (17,400 L/mol∙cm for OOT, and the extinction coefficients of IND are determined in GS solutions and presented in Figure S10).
The OOT solubilization method (Schott method) was used to calculate the micelle Nagg. The Nagg values were calculated for each point on the curve of dependence of the OOT-reduced optical density on the surfactant concentration above the cmc according to the presented formula:[…], where ε is the extinction coefficient of OOT, Csurf is the surfactant concentration above cmc, and D is the optical density.

Series [3] in a line: Tensiometry (Du Nouy ring), surface tension isotherms. It counts as physicochemical. How it is done: The surface tension isotherms of the micellar solutions were determined using the Du Nouy platinum ring detachment method on a K6 tensiometer (KRŰSS GmbH, Hamburg, Germany). For the experiment, surfactant solutions with a volume of 10 mL were prepared. The measurements were carried out strictly at 298 K in glass beakers, the diameter of which exceeded the diameter of the platinum ring. Surface tension measurements were carried out until stable values were obtained. After each measurement, the ring was degreased in ethanol and thoroughly dried. The cmc of the micellar solutions was determined from the breakpoint on the isotherm of surface tension versus surfactant concentration. The thermodynamic parameters of adsorption and micellization were calculated for all systems based on the obtained tensiometric curves.

Series [4] deals with Bacillus cereus ATCC 10702 NCTC 8035. As to the kind of experiment: Antimicrobial activity (Bc). It counts as cell-based. To be noted: Bacillus cereus. How it is done:
The antimicrobial activity of the compounds was tested on Gram-positive Staphylococcus aureus ATCC 6538P FDA 209P (Sa), Bacillus cereus ATCC 10702 NCTC 8035 (Bc), Enterococcus faecalis ATCC 29212 (Ef), and Gram-negative bacteria Escherichia coli ATCC 25922 (Ec), Pseudomonas aeruginosa ATCC 9027 (Pa), including methicillin-resistant strains of S. aureus MRSA-1 (resistant to fluoroquinolones and beta-lactams) and MRSA-2 (resistant to beta-lactams). Antifungal activity was studied against Candida albicans ATCC 10231 (Ca), Trichophyton mentagrophytes var. gypseum 1773 (Tm), and Aspergillus niger BKMF-1119 (An). A more detailed description of the experiment is published in [21].

SMILES strings stand for the structures. Several values for one entry are separate records, joined by “and”; a condition that tells them apart may be missing. Equal values may be shown once. Read-outs that look alike come from different tables or passages of the source.

On to `CCCCCCCCCCCCCC[N+](C)(CCCCCCCCCCCC[N+](C)(CCCCCCCCCCCCCC)CCOC(=O)NCC)CCOC(=O)NCC` (stereo not drawn) [14-12-14(Et)], for which, in series [1], the “βpot (degree of counterion binding)” value is listed as 0.3. For the same compound, in series [2], the “S (solubilizing capacity), OOT” value was found to be 0.047 molOOT/molGS. Besides, the “S (solubilizing capacity), OOT” value in series [2] (298 K) was found to be 0.047 molprobe/molGS. Moreover, the “cmc, Spectrophotometry” value in series [2] (OOT, 298 K) came to 0.045 ± 0.003 mM. For the same compound, in series [2] (Schott approach, OOT solubilization, 298 K), the “Nagg (aggregation number)” value worked out at 16. Moreover, in series [3] (298 K), the “Amin (surface area per surfactant molecule)” value is on record as 0.52 nm^2, the “Гmax∙10^6 (maximum surface excess)” value came out at 3.21 mol∙m^−2 and the “∆Gmic (free energy of micellization)” value is -8.84 kcal/mol. Besides, in series [3] (air/water interface), the “calculated adsorption layer thickness” value is 3.3 nm. Further, the cmctens in series [3] (tensiometry, 298 K) is 0.013 mM and 0.013 ± 0.0007 mM. For the same compound, the minimum bactericidal concentration (MBC) in series [4] (read-out: MBC, Bc) worked out at 125 ± 9 µg/mL. Moreover, the MIC in series [4] (read-out: MIC, Bc) is 125 ± 10 µg/mL.

By MBC is commonly meant the smallest concentration meeting the test's criterion for killing. For orientation: MIC means the least concentration at which growth counts as inhibited.
